Data set [1] concerns NB4 cells. Briefly: NB4 differentiation (NBT reduction, CD11b). The data set is classed as cell-based, human. As to conditions: GM-CSF alone. How it is done:
(§1) Differentiation of AML cell lines was assessed by their ability to produce superoxide as measured by reduction of NBT to formazan and by analysis of expression of CD11b surface marker by flow cytometry. For NBT reduction, each cell suspension was mixed with an equal volume of solution containing 1 mg/ml of NBT (Sigma) and 2.5 µg/ml of TPA for 30 minutes at 37° C. After incubation, cells containing the purple formazan deposits and cells devoid of NBT-reducing activity (white cells) in each sample were determined by counting 200 cells under microscope. Data is expressed as a percentage based on the following ratio: purple cells/purple+white cells. For analysis of cell surface antigens, cells were exposed to phycoerythrin (PE)-conjugated murine anti-human CD11b (DAKO Corp., Carpinteria, Calif.). Analysis of fluorescence was performed on a FACScan flow cytometer (Beckton Dickinson, Mountain View, Calif.).

A further data set has as its system U937 cells. In words: U937 differentiation (NBT reduction). The data set is classed as cell-based, human. Particulars: day 6. On the procedure: as §1
Another data set concerns HL-60 cells. In words: HL-60 differentiation (NBT reduction). The data set is classed as cell-based, human. Particulars: day 6. On the procedure: as §1
A further data set concerns the target T1, SHP-1 (Mus musculus, UniProt P29351).
T1 construct: made in house
In words: In vitro PTPase assay, GST/SHP-1. The data set is classed as biochemical. As to conditions: 1-1,000 μg/ml. How it is done:
In vitro PTPase activities were measured using the commercial protein tyrosine phosphatase assay kit (Upstate Biotechnology, Inc. (“UBI”)) following established procedure known to one of skill in the art. […] Briefly, 0.01 µg of GST/PTPase fusion proteins was incubated in 50 µl of Tris buffer (10 mM Tris, pH 7.4) containing different concentrations of inhibitors or chemicals (0-1,000 µg/ml) at 22° […] 100 µl of Malachite Green solution was added and incubated for 5 minutes, and the absorbance at 660 nm was measured after 5 minutes.
To assess the reversibility of inhibition of SHP-1 by PTPase inhibitors, GST/SHP-1 fusion protein bound on glutathione beads were pre-incubated in cold Tris buffer or Tris buffer containing the PTPase inhibitors at 4° C. for 30 minutes. The beads were then either subjected to in vitro PTPase assays or washed 3 times in Tris buffer then subjected to in vitro PTPase assays.
Briefly, individual PTPases (0.1 µg/reaction) in 50 µL of PTPase buffer (50 mM Tris, pH 7.4) were incubated at 22° C. for 10 minutes or as indicated in the absence or presence of inhibitory compounds. Substrates (0.2 mM phosphotyrosine peptide) were then added and allowed to react at 22° C. for 18 hrs. PTPase activity of individual reactions was measured by adding 100 µL of malachite green solution (UBI) and then quantifying the amounts of free phosphate cleaved by the PTPase from the peptide substrate by spectrometry (OD660 nm). […] Relative PTPase activities were calculated based on the formula: (PTPase activity in the presence of an inhibitory compound/PTPase activity in the absence of the compound)× 100%. To assess the reversibility of PTPase inhibition, GST fusion proteins of the PTPases bound on glutathione beads (Pharmacia) were pre-incubated with cold Tris buffer (50 mM Tris, pH 7.0) or Tris buffer containing the inhibitor at 4° C. for 30 minutes. The beads were then washed three times in cold Tris buffer or not washed prior to subjecting to in vitro PTPase assays.

A further data set deals with Baf3 cells. Briefly: Baf3 cell proliferation assay. The data set is classed as cell-based, murine. On the procedure: The murine hematopoietic cell line Baf3 was maintained in RPMI 1640 medium supplemented with 10% fetal calf serum (FCS) and murine IL-3 (20 units/ml) as described previously in Damen et al., J. Biol. Chem. 270, 23402 (1995). Human myeloid cell line TF-1 was maintained in RPMI 1640 supplemented with 10% FCS and 40 ng/ml of recombinant human GM-CSF as described previously in Thomassen et al., Clin. Immunol. 95, 85 (2000). For cell proliferation assays, cells were washed in 10% FCS medium twice, resuspended in 10% FCS medium, incubated at 37° C. for 16 hours, and then cultured at 37° C. in 10% FCS medium containing various amounts of cytokines, sodium stibogluconate, or potassium antimonyl tartrate for 3-6 days as indicated. The cell numbers in proliferation assays were determined by an MTT assay or by microscopic cell counting as indicated.

In data set [2] the test system is Jak2/Stat5 and cellular protein tyrosine phosphorylation in Baf3 cells. Briefly: Cellular protein phosphorylation and Western blotting in Baf3 cells. Particulars: Baf3 cells. The data set is classed as cell-based, murine. How it is done:
For induction of cellular protein phosphorylation by sodium stibogluconate or pervanadate, Baf3 cells were incubated in 0.1% FCS-RPMI 1640 medium at 37° C. for 16 hours. The cells were then washed twice in RPMI 1640 medium and incubated with sodium stibogluconate or pervanandate (0.1 mM) for various times prior to termination by lysing cells in cold lysis buffer (50 mM Tris, pH 7.4; 150 mM NaCl; 0.2 mM Na3VO4; 20 mm NaF; 1% Nonidet P-40; 2 mM PMSF; 20 µg/ml of Aprotinin and 1 mM of sodium molybdic acid). To determine the effect of sodium stibogluconate or potassium antimonyl tartrate on IL-3-induced Jak/Stat phosphorylation, Baf3 cells were deprived of the growth factor for 16 hours in 0.1% FCS RPMI 1640 medium and then incubated with or without sodium stibogluconate or potassium antimonyl tartrate for 10 minutes. IL-3 was next added to the cell suspension and incubated for various times. The Cells were then harvested and lysed in cold lysis buffer at 4° C. for 45 minutes. Total cell lysates (TCL) were separated in SDS-PAGE gels, blotted onto nitrocellulose membrane (Schleicher & Schuell), probed with specific antibodies and detected using an enhanced chemiluminescence kit (ECL, Amersham, Arlington Heights, Ill.).
(In general: A western blot detects proteins with antibodies after separation by electrophoresis.)

The target of a further data set is T2, PTP1B (Homo sapiens, UniProt P18031).
T2 construct: purchased Upstate Biotechnology Inc. (Lake Placid, N.Y.)
T2 sequence (P18031 whole entry, species assumed): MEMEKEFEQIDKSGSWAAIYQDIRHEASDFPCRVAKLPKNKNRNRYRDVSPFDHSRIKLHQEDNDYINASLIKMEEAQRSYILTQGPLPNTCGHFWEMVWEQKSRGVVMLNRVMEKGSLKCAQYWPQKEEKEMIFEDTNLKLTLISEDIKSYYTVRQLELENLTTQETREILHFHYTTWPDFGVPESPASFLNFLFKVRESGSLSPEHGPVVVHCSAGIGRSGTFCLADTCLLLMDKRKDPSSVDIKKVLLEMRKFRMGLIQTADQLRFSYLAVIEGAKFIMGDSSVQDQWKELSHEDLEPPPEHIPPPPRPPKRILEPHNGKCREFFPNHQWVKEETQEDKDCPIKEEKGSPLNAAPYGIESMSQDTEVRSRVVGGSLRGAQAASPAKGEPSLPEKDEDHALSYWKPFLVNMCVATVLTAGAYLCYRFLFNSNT
Briefly: In vitro PTPase assay, GST/PTP1B. The data set is classed as biochemical. As to conditions: 1-1,000 μg/ml. How it is done: In vitro PTPase activities were measured using the commercial protein tyrosine phosphatase assay kit (Upstate Biotechnology, Inc. (“UBI”)) following established procedure known to one of skill in the art. This assay measures the in vitro dephosphorylation of a synthetic phosphotyrosine peptide of the sequence Arg-Arg-Leu-Ile-Glu-Asp-Ala-Gle-T- -yr-Ala-Ala-Arg-Gly, wherein the tyrosine is phosphorylated (SEQ ID NO: 3). Briefly, 0.01 µg of GST/PTPase fusion proteins was incubated in 50 µl of Tris buffer (10 mM Tris, pH 7.4) containing different concentrations of inhibitors or chemicals (0-1,000 µg/ml) at 22° C. for 10 minutes, followed by addition of 0.2 mM of the phosphotyrosine peptide and incubation at 22° C. for 18 hours. 100 µl of Malachite Green solution was added and incubated for 5 minutes, and the absorbance at 660 nm was measured after 5 minutes.
In vitro PTPase assays were used to determine the effects of levamisole (Sigma), pentamidine (American Pharmaceutical Partners, Inc.), and ketoconazole (Sigma) on recombinant PTPases, following established procedures (Pathak et al., J. Imumol. 167, 3391 (2001); Pathak et al., Leukemia 16, 2285 (2002), Yi et al., J. Immunol. 169, 5978 (2002)) using a synthetic phosphotyrosine peptide or DiFMUP as the substrate as detailed above in section I.A.2.

Data set [3] deals with acute promyelocytic leukemia. As to conditions: in vivo; cited from earlier work.
Data set [4] deals with NB4 cells. In words: NB4 cell cycle analysis and Annexin V/propidium iodide assay. The data set is classed as cell-based, human. As to conditions: 3 days; sodium stibogluconate 250 μg/ml, ATRA 1 μM. How it is done:
[…] Briefly, the cells were fixed in cold ethanol and incubated for 30 minutes at 4° C. in the dark with a solution of […], 1 mg/ml RNase and 0.1% NP-40. Analysis was performed immediately after staining using the CELLFIT program (Becton Dickinson, Mountain View, Calif.).
] Annexin V staining of exposed membrane phospholipid phosphatidylserine (PS) was done using the Annexin V assay kit (Pharmingen, San Diego, Calif.). Briefly, NB4 cells were cultured in the 10% FCS RPMI 1640 medium in the absence or presence of sodium stibogluconate (250 µg/ml) or ATRA (1 µM) for 3 days. Cells were then washed in PBS twice and stained in binding buffer (10 mM Hepes, pH 7.4; 140 mM NaCl; 2.5 mM CaCl2) containing Annexin V-FITC and propidium iodide for 15 min. The reaction was stopped by adding 10 volumes of binding buffer and analyzed by FACS (Becton Dickinson Facsvantage).

The mark [5] stands for this setting: sodium stibogluconate 400 μg/ml, GM-CSF 25 ng/ml.

Where “and” joins values, the source holds several entries; their conditions need not be identical. Equal entries are not always repeated.

The values below come from US20080089860A1, “Therapeutic compositions and methods useful in treating cancer” (priority 2006, published 2008).

T1 sequence (P29351 whole entry): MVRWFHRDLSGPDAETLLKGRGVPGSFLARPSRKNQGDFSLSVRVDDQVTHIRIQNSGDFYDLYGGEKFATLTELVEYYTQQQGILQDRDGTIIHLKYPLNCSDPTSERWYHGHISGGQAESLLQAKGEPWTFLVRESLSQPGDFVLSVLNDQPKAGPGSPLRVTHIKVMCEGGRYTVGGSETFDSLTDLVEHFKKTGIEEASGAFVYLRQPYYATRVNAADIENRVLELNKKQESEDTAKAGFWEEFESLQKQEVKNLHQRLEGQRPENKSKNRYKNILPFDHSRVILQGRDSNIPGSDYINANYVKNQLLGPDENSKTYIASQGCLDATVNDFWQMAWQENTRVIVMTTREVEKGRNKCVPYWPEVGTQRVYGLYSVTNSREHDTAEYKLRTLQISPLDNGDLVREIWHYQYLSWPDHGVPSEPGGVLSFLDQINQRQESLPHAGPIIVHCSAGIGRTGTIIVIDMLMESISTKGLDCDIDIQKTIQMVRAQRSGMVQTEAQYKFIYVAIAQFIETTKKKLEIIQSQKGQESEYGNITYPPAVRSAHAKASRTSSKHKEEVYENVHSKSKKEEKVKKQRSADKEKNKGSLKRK

For the compound GM-CSF: recombinant human GM-CSF, in the data set on NB4 cells [1], the “effect on NB-4 cell differentiation” value was “no detectable effect”. For the same compound, the “maximal increase of NBT-positive cells” value with U937 cells (GM-CSF alone) and in the data set on HL-60 cells (GM-CSF alone) was 8-10% each time.
Take `O.O.O.O=C([O-])[C@H]([O-])[C@@H]([O-])C(=O)[O-].O=C([O-])[C@H]([O-])[C@@H]([O-])C(=O)[O-].[K+].[K+].[Sb+3].[Sb+3]` [potassium antimonyl tartrate]: the “inhibition of SHP-1” value at SHP-1 is “no detectable inhibition”. Further, in the data set with Baf3 cells, the “toxicity against Baf3 cells” value is given as “marked toxicity”. The “IL-3-induced proliferation of Baf3 cells” value with Baf3 cells (IL-3 10 units/ml, three days) was “failed to enhance”. In addition, the “IL-3-induced Stat5 phosphorylation” value in [2] is given as “failed to enhance”. Further, the “inhibition of PTP1B” value on PTP1B is recorded as “no detectable inhibition”.
Regarding `CC1=C(/C=C/C(C)=C/C=C/C(C)=C/C(=O)O)C(C)(C)CCC1` [ATRA, All-trans-retinoic acid], in data set [3], the “long term APL-free survival” value was “exceeding 75%”. For the same compound, the “cell cycle distribution of NB4 cells” value with NB4 cells [4] is recorded as “arrested at G1 phase”. In addition, in the data set with U937 cells (setting [5]), the “U937 differentiation (NBT-positive cells)” value was 72% and 73%. In the data set on HL-60 cells (setting [5]), the “HL-60 differentiation (NBT-positive cells)” value was 90%.
